# “Also recorded” adds a separate entry of the source.
# What was measured:
# [1] = test system: T98G cells; assay: Irradiation-induced cell death, PS externalization/PI permeabilization by flow cytometry; assay type: cell-based, human; settings: for irradiation induced cell death (PS externalization/PI permeability): drug 1-h prior to 25 Gy γ-irradiation, glyburide 12.5-200 μM, 72 h post-irradiation
# Experimental: (§1) Cells were cultured in fresh medium prior to irradiation and were γ-irradiated with a Shepherd model 143-45A irradiator (J. L. Shepherd & Associates, CA) at a dose rate of 4 Gy/min. Cells were incubated with drugs at the indicated concentrations 1 h before or 30 min after irradiation. Cell viability was determined using phosphatidylserine (PS) externalization/propidium iodide (PI) permeabilization assay or LDH Assay after 72 h post-irradiation incubation.
# (§2) After 72 h post-irradiation incubation, attached cells were harvested by trypsinization and pooled with detached cells from supernatant. Harvested cells were then stained with annexin-V-FITC and PI for 5 min in the dark prior to flow cytometry analysis (FACscan, Becton-Dickinson, Rutherford, N.J.). Cell debris was gated out by forward and side scatter under the same conditions, and a minimum of 10,000 gated cells were acquired. Percentages of annexin-V-positive cells were calculated by combining annexin V+/PI− (early apoptotic) and annexin V+/PI+ (late apoptotic or necrotic) cells.
# In the present study, we selected 10 chemicals that targeted 13 candidate siRNA gene transcripts for further study (Table 3). The radioprotective effects of the compounds were tested in T98G cells, which were initially used in the siRNA screen. […] The other nine chemicals lacked any obvious protective effect on γ-irradiation induced cell death under the current experimental conditions (FIG. 4A).
# [2] = test system: BEAS-2B cells; assay: Irradiation-induced cell death, flow cytometry; assay type: cell-based, human; settings: 1-h prior to irradiation (10 Gy)
# Experimental: as §1, §2
# (§3) Cells were exposed to γ-irradiation at different doses (10 or 25 Gy) based on their radiosensitivity. […] The mechanisms responsible for the differences in glyburide response are not known but are worthy of further investigation.
# [3] = test system: U-87 MG cells; assay: Irradiation-induced cell death, flow cytometry; assay type: cell-based, human; settings: 1-h prior to irradiation (10 Gy)
# Experimental: as §1, §2, §3
# [4] = test system: human primary astrocytes; assay: Irradiation-induced cell death, LDH release assay; assay type: cell-based; settings: 50 and 100 μM, 1-h prior to irradiation (25 Gy)
# Experimental: as §1
# For human primary astrocytes, cell viability was determined by assaying the medium from each sample for LDH activity according to the manufacturer's instructions (Sigma). The enzyme activity from the culture medium and floating cells were used as an index of cell death. To determine total LDH activity, the adherent cells were lysed in 0.5% Triton X-100 and assayed for LDH activity, this cell-associated LDH activity was then added to the LDH activity in the removed culture medium. The amount of LDH present in the medium was calculated as a percentage of the total, which was used to calculate the percent cell death in the corresponding samples.
# as §3
# [5] = test system: H1299 cells; assay: Irradiation-induced cell death, cell-based assay; set-up: species or system human; settings: γ-irradiated (10 or 25 Gy), data not shown
# Experimental: as §1, §3
# [6] = test system: HeLa cells; assay: Irradiation-induced cell death, cell-based assay; set-up: species or system human; settings: γ-irradiated (10 or 25 Gy), data not shown
# Experimental: as §1, §3
# [7] = test system: KM101 cells; assay: Irradiation-induced cell death, cell-based assay; set-up: species or system human; settings: γ-irradiated (10 or 25 Gy), data not shown
# Experimental: as §1, §3
# [8] = test system: 32D cl 3 cells; assay: In vitro irradiation survival curves (clonogenic survival assay); assay type: cell-based, mouse
# Experimental: The cells were irradiated with doses ranging from 0 to 8 Gy. The 32D cl 3 cells were plated in methycellulose, incubated at 37° C. for one week at which time colonies of greater than 50 cells were counted (Epperly, M. W. et al. Mitochondrial localization of superoxide dismutase is required for decreasing radiation induced cell damage. Radiat. Res. 160, 568-578 (2003) and Epperly, M. W. et al. Ethyl pyruvate, a potentially effective total body irradiation damage mitigator. Radiat. Res. 168, 552-559 (2007)). The data were analyzed using linear quadratic and single-hit, multi-target models (Id.).
# [9] = test system: C57BL/6NHsd female mice; assay: In vivo irradiation survival curves, total body irradiation; set-up: species or system mouse
# Description: Other groups of mice were control mice, or vehicle only irradiated mice.
# The mice were followed for the development of irradiation induced damage to the hematopoietic system which occurs within the first 30 days after irradiation (FIG. 7).
# [10] = Hypoglycemia at the dose of glyburide used in the present study; assay type: in vivo
smiles,measurement,setting,value
"COc1ccc(Cl)cc1C(=O)NCCc1ccc(S(=O)(=O)NC(=O)NC2CCCCC2)cc1 [glyburide, 5-chloro-N-[2-[4-(cyclohexylcarbamoylsulfamoyl)phenyl]ethyl]-2-methoxy-benzamide]",protection over a range of irradiation exposure,"[1]; 200 μM, 1-h prior to 5-25 Gy",effectively protected cells
same,"irradiation induced apoptosis, post-irradiation treatment",[1]; added 30-min after γ-irradiation (25 Gy),protected cells from irradiation induced apoptosis to a similar extent
same,irradiation induced cell death (PS externalization/PI permeability),[1],attenuated irradiation induced cell death in a concentration-dependent manner; also recorded: demonstrated radioprotective effect
same,irradiation induced cell death (PS externalization/PI permeability),[1]; listed as Glyburide,effectively relieved irradiation induced cell death
same,radioprotection,[2],effective radioprotection
same,radioprotection,[2]; listed as Glyburide,effectively relieved irradiation induced cell death
same,radioprotection,[3],effective radioprotection
same,radioprotection,[3]; listed as Glyburide,effectively relieved irradiation induced cell death
same,radioprotection,[4],effective radioprotection
same,radioprotection,[4]; listed as Glyburide,effectively relieved irradiation induced cell death
same,radioprotection,[5],no protective effect; also recorded: only limited protection
same,radioprotection,[6],no protective effect; also recorded: only limited protection
same,radioprotection,[7],no protective effect; also recorded: only limited protection
same,n or shoulder on the irradiation survival curve,[8]; 10 μM in methylcellulose following irradiation (0-8 Gy),2.5±0.9
same,survival of 32D cl 3 cells,"[8]; 10 μM, 1-h before irradiation (0-8 Gy)",significantly increased the survival
same,survival compared to irradiated controls,[9]; 5 mg/kg i.p. 10 min after 9.5 Gy total body irradiation,no significant increase in survival; also recorded: not protected from irradiation
same,survival compared to irradiated controls and vehicle only,"[9]; 5 mg/kg i.p. 10 min before 9.5 Gy total body irradiation, P=0.04",significantly increased survival; also recorded: protected as seen by an increase in survival; also recorded: increased the survival rate
same,mice survived,[9]; 5 mg/kg intraperitoneal 10 min before 9.5 Gy total body irradiation,60%
same,mice survived,[9]; glyburide injected 10-min after 9.5 Gy total body irradiation,44%
same,hypoglycemia,[10],did not cause hypoglycemia
